# Test results: patent publication US20230192878A1, “METHODS, THERAPIES AND USES FOR TREATING CANCER” (PFIZER INC., priority 2020, published 2023)
# Key:
# Molp8 = test: Cell surface BCMA expression after GSI, time course and washout; format: cell-based
# Method: (§1) Multiple myeloma cells (MM.1S, OPM2, H929, Molp8, RPMI8226) were seeded in a 6-well plate at 800,000 cells/2 ml/well with GSI diluted at 1 μM in RPMI medium (with 0.1% DMSO). Cells were collected to evaluate cell surface BCMA expression at baseline, and then at 3 hours, 6 hours and 24 hours after addition of the GSI. After 24 hours of incubation with the GSI, cells were washed twice in PBS and re-plated in fresh 6-well plates. […] At the indicated time points, samples were stained with a ZombieNIR Viability dye (Biolegend) for 20 minutes at room temperature at 1 in 500 dilution in PBS, washed with PBS+2% FBS and further stained with anti-BCMA PE-labelled antibody diluted in PBS+2% FBS for 30 minutes at 4° C. Samples were acquired on BD Flow Cytometer and analyzed using FlowJo software. Dead cells were removed from the analysis by gating on ZombieNIR negative population. BCMA MFI was plotted as a histogram.
# OPM2 = test: as above; format: cell-based
# Method: as §1
# MM.1S = test: as above; format: cell-based
# Method: as §1
# RPMI8226 = test: as above; format: cell-based
# Method: as §1
# [1] = tested on: advanced multiple myeloma; test: First in human Phase 1 clinical study: patient response per IMWG; format: in vivo
# Source text: This Example illustrates an ongoing Phase 1 open-label, multicenter clinical study of PF-06863135 (BCMAxCD3 bispecific) as monotherapy and in combination with sasanlimab, lenalidomide or pomalidomide, in adult patients with advanced multiple myeloma who have relapsed from or are refractory to standard therapy. The study has been registered on ClinicalTrials.gov with identifier NCT03269136 and was first posted August 2017. Study results for Part 1 of the trial and additional arms for the study are described in this Example.
# Part 1 of the Study is the […] single agent dose escalation arm at the dose levels of 0.1, 0.3, 1, 3, 10, 30, and 50 μg/kg Q1W by intravenous (IV) administration, and at the dose levels of 80, 130, 215, 360, 600 and 1000 μg/kg Q1W by subcutaneous (SC) administration. Upon reaching maximum tolerated dose (MTD)/maximum administered dose (MAD), patients can be treated at a dose level selected from the foregoing dose levels described in this paragraph, and below the MTD/MAD fora Q2W administration, both IV and SC, to further support the recommended phase 2 dose (RP2D) decision. For the study, dose limiting toxicity observation period is set at 21 days for Q1W dosing and 28 days for Q2W dosing. The treatment cycle, aka cycle, for Q1W dosing would be 3 weeks, and for Q2W dosing would be four weeks.
# Clinical Outcome of Part 1 of the Study. As of 15 Apr. 2020, a total of 23 patients were enrolled in Part 1 of the study and had been treated with PF-06863135 administered intravenously (IV) at 0.1 (N=2), 0.3 (N=3), 1 (N=2), 3 (N=3), 10 (N=2), 30 (N=5), and 50 (N=6) μg/kg. As of Aug. 21, 2020, a total of 30 patients were enrolled in Part 1 of the study and had been treated with PF-06863135 administered subcutaneously (SC) at 80 (N=6), 130 (N=4), 215 (N=4), 360 (N=4), 600 (N=6) and 1000 (N=6) μg/kg. Safety and efficacy data were available for in 23 IV and 30 SC treated patients per IMWG (International Myeloma Working Group) criteria.
# Part 1.1 of the Study is an alternative maintenance dose escalation arm for single agent PF-06863135. If excessive toxicity occurs or the maximum tolerated dose (MTD)/maximum administered dose (MAD) is reached at a dose level that is earlier than desired in Part 1 of the study described above, a priming dose will be administered one week prior to the day 1 cycle 1 administration of the dose (maintenance dose) at this dose level and for all subsequent dose levels in the dose escalation that may be initiated for Part 1.1. The priming dosing will be at a lower dose level than the maintenance dose.
# [2] = 600 μg/kg priming, 1000 μg/kg Q1W SC, N = 7
# [3] = 600 μg/kg priming, 1000 μg/kg Q2W SC, N = 13
molecule,measurement,setting,value
"CCC[C@H](N[C@H]1CCc2cc(F)cc(F)c2C1)C(=O)Nc1cn(C(C)(C)CNCC(C)(C)C)cn1 [GSI, nirogacestat]",BCMA (-PE) MFI,"Molp8; Molp8, GSI 1 μM for 24 h, 3 h post wash",7523
same,BCMA (-PE) MFI,"Molp8; Molp8, GSI 1 μM for 24 h, 5 h post wash",5050
same,BCMA (-PE) MFI,"Molp8; Molp8, GSI 1 μM for 24 h, 24 h post wash",2960
same,BCMA (-PE) MFI,"Molp8; Molp8, GSI 1 μM, 3 h after GSI",2461
same,BCMA (-PE) MFI,"Molp8; Molp8, GSI 1 μM, 6 h after GSI",3098
same,BCMA (-PE) MFI,"Molp8; Molp8, GSI 1 μM, 24 h after GSI",5307
same,BCMA (-PE) MFI,"OPM2; OPM2, GSI 1 μM for 24 h, 3 h post wash",21621
same,BCMA (-PE) MFI,"OPM2; OPM2, GSI 1 μM for 24 h, 5 h post wash",11050
same,BCMA (-PE) MFI,"OPM2; OPM2, GSI 1 μM for 24 h, 24 h post wash",2624
same,BCMA (-PE) MFI,"OPM2; OPM2, GSI 1 μM, 3 h after GSI",9257
same,BCMA (-PE) MFI,"OPM2; OPM2, GSI 1 μM, 6 h after GSI",9854
same,BCMA (-PE) MFI,"OPM2; OPM2, GSI 1 μM, 24 h after GSI",20592
same,BCMA (-PE) MFI,"MM.1S; GSI 1 μM for 24 h, 3 h post wash",33509
same,BCMA (-PE) MFI,"MM.1S; GSI 1 μM for 24 h, 5 h post wash",23906
same,BCMA (-PE) MFI,"MM.1S; GSI 1 μM for 24 h, 24 h post wash",11170
same,BCMA (-PE) MFI,"MM.1S; GSI 1 μM, 3 h after GSI",13690
same,BCMA (-PE) MFI,"MM.1S; GSI 1 μM, 6 h after GSI",14920
same,BCMA (-PE) MFI,"MM.1S; GSI 1 μM, 24 h after GSI",25602
same,BCMA (-PE) MFI,"RPMI8226; RPMI8226, GSI 1 μM for 24 h, 3 h post wash",6557
same,BCMA (-PE) MFI,"RPMI8226; RPMI8226, GSI 1 μM for 24 h, 5 h post wash",4437
same,BCMA (-PE) MFI,"RPMI8226; RPMI8226, GSI 1 μM for 24 h, 24 h post wash",2688
same,BCMA (-PE) MFI,"RPMI8226; RPMI8226, GSI 1 μM, 3 h after GSI",4437
same,BCMA (-PE) MFI,"RPMI8226; RPMI8226, GSI 1 μM, 6 h after GSI",4527
same,BCMA (-PE) MFI,"RPMI8226; RPMI8226, GSI 1 μM, 24 h after GSI",6340
PF-06863135: heterodimeric humanized full-length bispecific antibody with one BCMA binding arm and one CD3 binding arm,Patients who achieved a complete response,[1]; 50 μg/kg IV,1 patient
same,Patient Response: PR (patients),"[1]; 215 μg/kg SC, N = 4",1
same,Patient Response: SD (patients),"[1]; 215 μg/kg SC, N = 4",1
same,Patient Response: sCR (patients),"[1]; 215 μg/kg SC, N = 4",2
same,Patient Response: PD (patients),"[1]; 360 μg/kg SC, N = 4",1
same,Patient Response: VGPR (patients),"[1]; 360 μg/kg SC, N = 4",2
same,Patient Response: sCR (patients),"[1]; 360 μg/kg SC, N = 4",1
same,Patient Response: PD (patients),"[1]; 600 μg/kg SC, N = 6",1
same,Patient Response: SD (patients),"[1]; 600 μg/kg SC, N = 6",1
same,Patient Response: VGPR (patients),"[1]; 600 μg/kg SC, N = 6",2
same,Patient Response: sCR (patients),"[1]; 600 μg/kg SC, N = 6",2
same,Patient Response: CR (patients),[1]; [2],2
same,Patient Response: PR (patients),[1]; [2],1
same,Patient Response: VGPR (patients),[1]; [2],1
same,Patient Response: PD (patients),[1]; [3],3
same,Patient Response: PR (patients),[1]; [3],3
same,Patient Response: SD (patients),[1]; [3],1
same,Patient Response: VGPR (patients),[1]; [3],4
same,Patient Response: CR (patients),"[1]; 1000 μg/kg SC, N = 6",1
same,Patient Response: PD (patients),"[1]; 1000 μg/kg SC, N = 6",1
same,Patient Response: PR (patients),"[1]; 1000 μg/kg SC, N = 6",1
same,Patient Response: VGPR (patients),"[1]; 1000 μg/kg SC, N = 6",3
same,Subjects who achieved best response of stable disease,[1]; IV cohorts (0.3-50 μg/kg),Ten
same,Patients who achieved a minimal response,"[1]; IV cohorts, at 3 μg/kg and 50 μg/kg IV",2 patients
same,Clinical efficacy,[1]; highest dose levels of 600 and 1000 μg/kg SC,clinical efficacy was seen in most patients
